Reference: patent US9974825B2, “Peptides Des-[Asp1]-[Ala1], angiotensin-(1-7) agonist and pharmaceutical compositions for the treatment of diseases” (UNIVERSIDADE FEDERAL DE MINAS GERAIS, priority 2008, dated 2018)

How the values were obtained:
[1] = system: aorta rings of Mas−/− mice; test: Vasorelaxation in precontracted aorta rings of mice with genetic deletion of the Mas receptor (Mas-/-); format: cell-based, mice (C57/BI-6 and FVB/N); conditions: both lineages C57/BI-6 and FVB/N, precontracted with fenilefrine 0.1 μM
Procedure: (§1) This example describes the vasodilating effect of Ala^1-Ang-(1-7), independently of the Mas receptor, on aorta rings of mice with genetic deletion of the Mas receptor (Mas−/−) and wild-type mice (Mas+/+) from two different lineages, C57/BI-6 and FVB/N.
(§2) The original rings of the descending thoracic aorta (2 mm), free from adipose tissue and connective tissue, were incubated in gasified solution (95% O2 and 5% CO2) of Krebs-Henseleit (mmol/L): NaCl 110.8, KCl 5.9, NaHCO3 25.0, MgSO4 1.07, CaCl2 2.49, NaH2PO4 2.33 and glucose 11.51, under a temperature of 37° C. and a 0.5 g tension, being equilibrated for 1 hour. The functional presence of endothelium was tested by its relaxing capacity produced by acetylcholine [ACh] (10 μM) on vessels precontracted with fenilefrine (0.3 μM). Only the vessels showing relaxation above 70% of extended contraction produced by fenilefrine were taken into account. […]
(§3) The aorta rings of mice Mas−/− and Mas+/+ from both lineages (C57/BI-6 and FVB/N) were precontracted to achieve the same tension level (approximately a 1.0 g tension) at a submaximum concentration of fenilefrine (0.1 μM). […] The vasodilating effects of Ala^1-Ang-(1-7) and Ang-(1-7) were expressed as a percentage of relaxation relative to the maximum contraction induced by fenilefrine. […]

[2] = biological target: T1, angiotensin converter enzyme (ACE) (Rattus norvegicus, UniProt P47820); test: Plasmatic ACE activity, fluorimetric method with Hip-His-Leu substrate; format: biochemical, Wistar rats; conditions: Wistar rat plasma
T1 construct: from tissue; host or cells: plasma of Wistar rats
T1 sequence (P47820 36-1238 limits assumed): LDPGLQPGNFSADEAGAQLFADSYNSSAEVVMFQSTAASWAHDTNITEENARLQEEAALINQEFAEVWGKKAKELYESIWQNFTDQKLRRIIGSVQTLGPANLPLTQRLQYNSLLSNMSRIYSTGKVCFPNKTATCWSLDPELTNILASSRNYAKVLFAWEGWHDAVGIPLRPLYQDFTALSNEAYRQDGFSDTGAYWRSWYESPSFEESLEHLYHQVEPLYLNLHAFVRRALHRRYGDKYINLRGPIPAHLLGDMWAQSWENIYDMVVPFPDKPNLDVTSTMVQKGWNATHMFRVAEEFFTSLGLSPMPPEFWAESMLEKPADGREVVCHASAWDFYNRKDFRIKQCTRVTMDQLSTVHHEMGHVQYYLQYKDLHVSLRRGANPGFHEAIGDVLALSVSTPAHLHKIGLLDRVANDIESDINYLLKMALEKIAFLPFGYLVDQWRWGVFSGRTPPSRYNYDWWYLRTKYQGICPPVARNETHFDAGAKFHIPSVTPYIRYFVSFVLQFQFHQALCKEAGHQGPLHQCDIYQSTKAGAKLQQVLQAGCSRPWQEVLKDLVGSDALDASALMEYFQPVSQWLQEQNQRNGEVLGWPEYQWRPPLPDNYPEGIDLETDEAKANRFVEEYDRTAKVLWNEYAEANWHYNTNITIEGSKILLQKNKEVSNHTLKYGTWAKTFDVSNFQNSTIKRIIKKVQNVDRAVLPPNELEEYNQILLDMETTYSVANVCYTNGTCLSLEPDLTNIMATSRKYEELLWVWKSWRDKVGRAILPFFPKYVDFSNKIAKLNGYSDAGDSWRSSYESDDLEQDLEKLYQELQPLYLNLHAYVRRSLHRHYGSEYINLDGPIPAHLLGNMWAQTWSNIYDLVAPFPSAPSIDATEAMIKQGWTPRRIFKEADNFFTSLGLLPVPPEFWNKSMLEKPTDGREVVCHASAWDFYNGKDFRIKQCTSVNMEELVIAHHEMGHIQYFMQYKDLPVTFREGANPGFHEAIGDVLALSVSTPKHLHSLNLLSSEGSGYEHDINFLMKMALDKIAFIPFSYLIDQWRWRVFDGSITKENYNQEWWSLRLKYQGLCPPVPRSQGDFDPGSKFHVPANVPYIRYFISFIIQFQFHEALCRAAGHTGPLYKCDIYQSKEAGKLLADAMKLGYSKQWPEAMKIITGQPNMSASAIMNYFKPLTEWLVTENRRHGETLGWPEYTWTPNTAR
Procedure: The plasmatic activity of ACE was measured by the fluorimetric method using Hip-His-Leu as substrate, as previously described (Santos, R. A. S. et al., Hypertension, 7:244-52, (1985)). Plasma aliquots (10 μL) of Wistar rats were incubated with a […] solution containing a 1 mM substrate (Hip-His-Leu) and 0.4 M of sodium borate, 0.9 M NaCl (pH=8.3) for 15 minutes at 37° C. The reaction was halted by adding 1.2 mL of NaOH at 0.34 M and […] of orthoftaldehyde (20 mg/mL in methanol). After 10 minutes at environment temperature, […] of HCl at 3 N was added. Later on, after a 5-minute 800×g centrifugation, the floating solution fluorescence was measured (a 365 nm excitation and a 495 nm emission). The blank was prepared by inverting the addition order of plasma and NaOH. A 0.5 to 20 nmol curve, containing the product (His-Leu) resulting of the substrate break (Hip-His-Leu) by ACE plasmatic activity, was prepared in each assay. In order to test the inhibition effect of ACE by the PEPTIDEs Ang-(1-7) and Ala^1-Ang-(1-7), 3.3×10^−7 or 3.3×10^−6 M of each PEPTIDE was added before the plasma addition. […] The percentage of enzymatic activity inhibition was estimated in function of the maximum activity obtained.

[3] = system: aorta rings of Mas+/+ mice; test: Vasorelaxation in phenylephrine-precontracted aorta rings of wild-type (Mas+/+) mice; format: cell-based, mice (C57/BI-6 and FVB/N); conditions: both lineages C57/BI-6 and FVB/N, precontracted with fenilefrine 0.1 μM
Procedure: as §1, §2, §3

ACE inhibition ([2]; peptide 3.3×10^−6 M) [%] | ACE inhibition ([2]; peptide 3.3×10^−7 M) [%] | Substance | vasodilating response [1] | vasorelaxation (relaxation relative to maximum contraction induced by fenilefrine) [3]
85.8 | 42.4 | Asp^1-Arg^2-Val^3-Tyr^4-Ile^5-His^6-Pro^7 [Ang-(1-7)] | absence | produced vasorelaxation
98.3 | 76.3 | Ala^1-Arg^2-Val^3-Tyr^4-Ile^5-His^6-Pro^7 [Ala^1-Ang-(1-7)] | totally preserved | produced vasorelaxation
